The record followed here is article PMC6320368, “A T-cell receptor escape channel allows broad T-cell response to CD1b and membrane phospholipids” (Nature Communications, 2019).

Assay [1] addresses T1, CD1b (human CD1b monomer with β2m; CD1b tetramer) (Homo sapiens, UniProt P29016).
T1 construct: soluble ectodomain with beta-2-microglobulin; His-tag purified; from High Five insect cells or HEK293S GnTI- (crystals, SPR); tetramer-facility monomers from U293 cells; with Beta-2-microglobulin
Nature of the assay: lipid-loaded CD1b tetramer staining of T-cell lines. The assay is classed as cell-based. The following applies: indirect read-out of lipid loading; CHAPS, citrate pH 7.4, 37 °C loading.

The target of assay [2] is T1, CD1b (human CD1b monomer with β2m; CD1b tetramer). Nature of the assay: SPR of BC8B TCR on lipid-loaded CD1b; tetramer staining. In kind it is binding. Particulars: indirect read-out of lipid loading; pH 8.0, 25 °C.

Each structure is given as a SMILES string.

T1 sequence (P29016 20-296): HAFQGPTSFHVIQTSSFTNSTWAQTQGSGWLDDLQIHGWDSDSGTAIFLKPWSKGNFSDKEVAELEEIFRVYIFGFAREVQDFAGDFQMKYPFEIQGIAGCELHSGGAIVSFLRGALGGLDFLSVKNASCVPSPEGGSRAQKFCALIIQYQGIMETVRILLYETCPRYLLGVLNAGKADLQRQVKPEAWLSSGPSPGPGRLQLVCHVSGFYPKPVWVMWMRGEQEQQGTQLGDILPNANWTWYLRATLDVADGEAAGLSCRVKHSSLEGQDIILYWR
T1 sequence (P61769 21-119 partner): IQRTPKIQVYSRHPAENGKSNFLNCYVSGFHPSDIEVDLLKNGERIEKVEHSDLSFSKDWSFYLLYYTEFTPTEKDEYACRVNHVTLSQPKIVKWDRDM

Regarding `CCCCCCCC/C=C\CCCCCCCC(=O)OC[C@@H](O)COP(=O)(O)O` [LPA, lysophosphatidic acid], in assay [1], the “lipid-loaded CD1b tetramer staining of T-cell lines” value was “specifically stained with phospholipids carrying small head groups, such as PG and LPA”. With `CCCCCCCCCCCCC/C=C/[C@@H](O)[C@H](COP(=O)([O-])OCC[N+](C)(C)C)NC(=O)CCCCCCCCCCCCCCC` [SM, sphingomyelin], the “SPR of BC8B TCR on lipid-loaded CD1b; tetramer staining” value in assay [2] is “The BC8B TCR detectably interacted with CD1b presenting the sphingolipid antigens, SM and sulfatide”.
